The test system of assay [1] is LPS-induced TNF-α production. The experiment in a line: Sub-lethal LPS-induced endotoxemia in mice, serum TNF-α by ELISA. The format is in vivo. Particulars: mice; doses above 1 μg/mouse; subcutaneous or oral route. On the procedure:
FIGS. 5A-5E show representative dose response curves for the inhibition of LPS induced TNF-α production in vivo in a murine model of sub-lethal endotoxemia. In each experiment, groups of six mice received pre-treatment with the five compounds (FIG. 5A: (II); FIG. 5B: (III); FIG. 5C: (V); FIG. 5D: (I′) and FIG. 5E: (IV)) at various doses, via either the oral route (circles) or subcutaneous route (triangles). 30-60 mins later, animals were challenged with LPS via the intraperitoneal route, and serum was prepared from a terminal bleed 3 hours later. The level of TNF-α in the blood was measured by ELISA, and the degree of inhibition of LPS-induced TNF-α production (calculated as the concentration of TNF-α in mice exposed to LPS minus the concentration of TNF-α in mice which received a sham exposure to endotoxin-free PBS) is shown on the Y-axis of each graph as the mean of six animals, with whiskers representing SEMs. The concentration of TNF-α in mice receiving LPS but no BSCI treatment was typically 5,000 to 6,000 pg/ml on average (compared to <10 pg/ml in unchallenged mice). The ED50 was estimated by linear interpolation of the presented graphs. The X-axis of each graph represents the dose of each compound administered to each mouse in the group in units of mg (1E-07 to 1).
In this assay, mice are given a non-specific pro-inflammatory challenge using bacterial endotoxin (LPS), and the extent of the systemic inflammatory response (measured by serum levels of the central pro-inflammatory cytokine TNF-α, which is essentially absent from the blood under normal conditions, but is rapidly elevated in response to a wide range of inflammatory stimuli). We have selected this model even though it is not, itself, a particularly close model of any human inflammatory disease condition, but because TNF-α is known to be important in very many diseases (including rheumatoid arthritis, autoimmune disorders, Crohn's Disease, atherosclerosis, asthma and many more). Consequently, agents which suppress TNF-α production are already used clinically (e.g. Enbrel™ and other anti-TNF-α antibody products) to treat a wide range of such diseases.
Mice (in groups of 6) were pretreated with various doses of each compound, either by the subcutaneous route 30 mins prior to LPS challenge, or by the oral route (via gavage) 60 mins prior to LPS. The mice were then challenged with an intraperitoneal injection of 750 μg of bacterial LPS and sacrificed 3 hours later. Serum was prepared from a terminal bleed by cardiac puncture, and the concentration of TNF-α is determined by ELISA (R&D Systems). In each experiment, a group of 6 mice receive no LPS to act as a negative control, and a second group receive only LPS (with no candidate inhibitor). […]
For orientation: ELISA stands for enzyme-linked immunosorbent assay.

For assay [2], the target named is target receptor (site of specific interaction of BN83250) (Homo sapiens, UniProt P30874). The experiment in a line: Competition for binding of [3H]-BN83250 to the target receptor on human myelomonocytic cell line. Conditions: competition with 10 nM [3H]-BN83250; non-linear modelling. On the procedure:
In this experiment, each reaction received 10 nM labelled BN83250 (a lactam BSCI which binds to the same receptor as compound (I′)), together with various competitors (100 μM-1 pM). The total specific binding was the amount displaced by a large excess (100 μM). Each bar represents the mean of three replicate determinations, with whiskers representing SEM. The Y-axis represents the radioactive counts bound in each experiments in units of counts per minute (cpm). The upper dashed line represents the total binding under the conditions of the experiment, while the lower dashed line represents the non-specific binding; the specific binding is represented by the distance between the dashed lines.
The general pharmacology of the five compounds was assessed, both against the specific target receptor, and against a wide variety of other receptors, many related in structure to the target receptor. Specific binding to the target receptor was assessed by competition for the binding of [^3H]-BN83250 (BN83250 is (S)-3-(2′,2′-dimethyldodecanoylamino)-caprolactam; Fox et al. J Med Chem. […]; 48(3):867-74; an agent known to bind to the same target receptor as the lactam BSCIs disclosed here). Binding to non-target receptors was assessed by competition for the binding of various specific radioligands for other receptors which are well known in the art. […]

target receptor (site of specific interaction of BN83250), sequence (P30874 whole entry): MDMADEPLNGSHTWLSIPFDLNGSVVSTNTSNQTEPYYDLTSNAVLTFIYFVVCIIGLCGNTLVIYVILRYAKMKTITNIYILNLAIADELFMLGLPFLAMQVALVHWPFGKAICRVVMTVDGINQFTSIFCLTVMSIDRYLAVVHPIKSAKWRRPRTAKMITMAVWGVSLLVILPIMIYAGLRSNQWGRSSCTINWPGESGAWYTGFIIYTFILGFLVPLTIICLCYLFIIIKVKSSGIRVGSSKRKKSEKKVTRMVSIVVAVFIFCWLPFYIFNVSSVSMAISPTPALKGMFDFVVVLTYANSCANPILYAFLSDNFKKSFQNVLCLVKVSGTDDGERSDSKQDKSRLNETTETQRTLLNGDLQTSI

Turning to `CC(C)(C)C(=O)N[C@H]1CCCNC1=O` [Compound (I′), (S)-3-(2′,2′-dimethylpropanoylamino)-tetrahydropyridin-2-one], the “suppression of LPS-induced TNF-α levels” value in assay [1] is “more than 90%”. In addition, in assay [2], the “Ka at target receptor (pM)” value is on record as 50 pM.
